The source of these data is patent US20200046774A1, “COMPOSITION FOR PREVENTING OR TREATING BONE DISEASES WHICH HAS EXCELLENT BONE REGENERATION EFFECT” (KOREA UNIVERSITY RESEARCH AND BUSINESS FOUNDATION, priority 2017, published 2020).

For experiment [1], the system named is alkaline phosphatase (ALP). Description: ALP activity (early osteogenic induction ability), OIM or GM culture. Conditions: 1 ng/ml, 2 ng/ml and 5 ng/ml of BMP-2, 7 days after induction of osteogenesis, versus control not treated with BMP-2; FIG. 4.
Description: After 3 days and 7 days of the culturing, samples were washed twice with a PBS solution, and dissolved in a cell lysis buffer to which 0.1% Triton X-10 was added.
Lysed cells were centrifuged at 4° C. and 13000 rpm for 30 minutes, and then a supernatant was recovered and quantitated by a Bradford assay. The ALP activity was measured at 405 nm for the same amount of proteins using an ALP kit (AnaSpec), and the results are shown in FIG. 3.
In experiment [2] the test system is TDF cell line of Example 3. The experiment in a line: Evaluation of apoptosis by gancyclovir treatment (HSV-tk kill switch). The experiment is classed as cell-based. The settings on record: 0, 50 and 500 μg/ml, 72 hours to 124 hours; depending on concentration and time; FIGS. 12 and 13. The method, then: TDF cell line of Example 3, a cell line of Example 3 was treated with gancyclovir in concentrations of 0 μg/ml, 50 μg/ml and 500 μg/ml, respectively, and the number of cells was observed and analyzed for a period of 72 hours to 124 hours, as shown in FIGS. 12 and 13.

Experiment [3] concerns HGPRT knockout cell line of Example 14. Conditions: after 9 days of 6-TG treatment, in comparison to the TDF cell line of Example 3; FIG. 20.

In the case of BMP-2, the “ALP activity of normal TDF cell line with BMP-2 injected from the outside” value in experiment [1] is “statistically significant ALP activity was not observed”. As to `Nc1nc(O)c2ncn(COC(CO)CO)c2n1` [ganciclovir], in experiment [2], the “cell growth / number of cells under gancyclovir” value is on record as “cell growth is inhibited”. Consider `Nc1nc2[nH]cnc2c(=S)[nH]1` [Example 6-TG, 6-tioguanine], for which the “cell survival under 6-TG treatment” value in experiment [3] is reported as “more cells survived”.
